# Assay results published in patent US20200131176A1, “SELECTIVE INHIBITORS OF CLINICALLY IMPORTANT MUTANTS OF THE EGFR TYROSINE KINASE” (CS Pharmatech Limited, priority 2017, published 2020).
# Where “and” joins values, the source holds several entries; their conditions need not be identical. Equal entries are not always repeated. Where two headings read alike, the source gives them in different places.
# What was measured:
# [1] = system: H1975 NSCLC cells xenograft (EGFR L858R/T790M double mutant); assay: EGFR L858R/T790M double-mutant H1975 xenograft model; format: in vivo, nu/nu mice; conditions: day 10 after dosing; for Tumor Size: average ± SEM, n = 9
# Method: Appropriately transformed cells, either from ATCC cell lines, known to carry the oncogene of interest, or from deliberate transfections, are suspended in appropriate media, and 5×10^6 or 1×10^7 cells are injected into the flank of nu/nu mice. Alternatively trochar placement of fragments of in vivo passaged tumors, usually about 1 mm^3 can be used to initiate the tumors. When tumors have reached an appropriate size for the experiment, usually in the 100-300 mg range, animals are randomized into matched groups of 6-10 mice, and tumor size and given vehicle or test article by perioral gavage once or twice daily. Tumor volumes are determined using calipers. The percentage increase in the volume of a xenograft tumor on day n versus day 0 (the day when dosing of the test compound began) is calculated as (tumor volume on day n−tumor volume on day 0/tumor volume on day 0)×100. The mean percentage of tumor growth inhibition in each drug-treated group relative to the vehicle-treated group is calculated as (1−mean percent increase of tumor volume in the drug-treated group/mean percent increase of the tumor volume in the vehicle-treated group)×100. Statistical significance is evaluated using a one-tailed t test.
# Tumor size was measured on day 10 after dosing.
# INSR = target: T1, INSR (Homo sapiens, UniProt P06213); assay: INSR inhibition assay (Caliper mobility shift); format: biochemical; conditions: enzyme assay
# T1 construct: purchased CARNA BIOSCIENCE 08-142
# Method: Test compound was dissolved in DMSO at 30 mM. […] 20 nL of these compounds DMSO dilutes were dispensed into a new 384-well assay plate by Echo 550. […] 15 μL of kinase assay buffer containing INSR protein and substrate was transferred to assay plate and incubate at RT for 30 minutes. Kinase assay buffer supplemented with substrate peptides was employed as low control to monitor the background. 40 μM ATP was prepared in kinase assay buffer containing and 5 μL of ATP solution was added to each well to start the reaction. The assay plate was incubated at 25° C. for 180 minutes and the reaction was stopped by adding 40 μL of 0.5 M EDTA.
# The result was analyzed in the same manner as IGF-IR.
# [2] = target: T2, Exon 19 deletion EGFR (activating single mutant) in PC-9 cells (Homo sapiens, UniProt P00533, DEL746-750); assay: Exon 19 deletion EGFR PC-9 cellular autophosphorylation assay (p-EGFR ELISA); format: cell-based; conditions: PC9, 2 h treatment, read-out: SM (PC9) IC50
# T2 construct: cellular phosphorylation of endogenous p-EGFR; host or cells: PC9 (PC-9) human lung cell line
# Method: The human lung cell line PC9 (Exon 19 deletion EGFR) were obtained from the American type Culture Collection. […] Cells were grown in a humidified incubator at 37° C. with 5% CO2, Assays to measure cellular phosphorylation of endogenous p-EGFR in cell Iysates were carried out according to the protocol described in the R&D Systems DuoSet IC Human Phospho-EGF R ELISA (R&D Systems catalogue number # DYCI095). 40 μL of cells were seeded (10000 cells/well) in growth medium in Coming black, clear-bottomed 384-well plates and incubated at 37° C. with 5% CO2 overnight. […] Plates were incubated for a further 2 h, then following aspiration of medium, 40 μL× lysis buffer is added to each well. Greiner black high bind 384 well plates were coated with capture antibody and then blocked with 3% BSA. Following removal of block, 15 μL of lysate are transferred to the Greiner black high bind 384 well plates and incubated for 2 hours. Following aspiration and washing of the plates with PBS, 20 μL of detection antibody were added and incubated for 2 hours. […] The data obtained with each compound are exported into a suitable software package (such as Origin) to perform curve fitting analysis.
# IGF-1R = target: T3, IGF-1R (Homo sapiens, UniProt P08069); assay: IGF-1R inhibition assay (Caliper mobility shift); format: biochemical; conditions: enzyme assay
# T3 construct: purchased CARNA BIOSCIENCE 08-141
# Method: Test compound was dissolved in DMSO at 30 mM. […] 20 nL of these compounds DMSO dilutes were dispensed into a new 384-well assay plate by Echo 550. […] 15 μL of kinase assay buffer containing IGF-1R protein and substrate was transferred to assay plate and incubate at RT for 30 minutes. Kinase assay buffer supplemented with substrate peptides was employed as low control to monitor the background. 40 μM ATP was prepared in kinase assay buffer containing and 5 μL of ATP solution was added to each well to start the reaction. The assay plate was incubated at 25° C. for 180 minutes and the reaction was stopped by adding 40 μL of 0.5 M EDTA.
# Phosphorylated fluorescent-tagged peptides were differentiated from non-phosphorylated peptides by separating using Caliper EZ Reader II and the detection was directly converted to conversion ratio.
# [3] = target: hERG channel (HEK 293 cell line stably expressing hERG channel) (Homo sapiens, UniProt Q12809); assay: cell-based
# PC-9 cells = assay: PC-9 growth inhibition assay (cell proliferation, CellTiter-Glo, 72 h); format: cell-based, human; conditions: cellular proliferation, PC9 cells, single mutant EGFR, read-out: PC9 IC50 (nM) SM
# Method: (§1) Then incubate the flasks at 37° C. until the cells detach.
# (§2) Test compounds were dissolved in DMSO at 30 mM.
# (§3) The final concentration was 1,000 cells/well. Add medium only as low control.
# (§4) After 72 hours incubation, remove the plates from incubator and equilibrate at room temperature for 15 minutes. Incubate the CellTiter Glo reagents (Promega, G9243) at 37° C. before the experiment. The buffer was equilibrated to room temperature and used to dissolve the substrate. To determine the cell viability, add 40 μL of CellTiter-Glo reagent into each well to be detected (at 1:1 to culture medium). Then the place the plates at room temperature for 30 min followed by read on EnSpire (PerkinElmer).
# (§5) For estimation of IC50, the luminescence readout are transformed to % Inhibition by applying the following equation:
# Mouse in vivo PK study [4] = conditions: male CD1 mice
# [5] = target: T4, L858R/T790M double mutant EGFR in H1975 cells (Homo sapiens, UniProt P00533, L858R/T790M); assay: L858R/T790M double mutant H1975 autophosphorylation inhibition assay (ELISA); format: cell-based; conditions: cellular EGFR autophosphorylation, H1975, 2 h treatment; read-out: DM (H1975) IC50
# T4 construct: endogenous in cells; host or cells: H1975 cells
# A431 cells = assay: A431 inhibition assay (cell proliferation, CellTiter-Glo, 72 h); format: cell-based, human; conditions: cellular proliferation, wild type EGFR, read-out: A431 IC50 (nM) WT
# Method: as §1, §2, §3, §4, §5
# H1975 cells = assay: H1975 inhibition assay (cell proliferation, CellTiter-Glo, 72 h); format: cell-based, human; conditions: cellular proliferation, double mutant EGFR, read-out: NCI-H1975 IC50 (nM) DM
# Method: H1975 Inhibition Assay (Cell Proliferation).
# as §2, §3, §4, §5
# [6] = target: Wild type EGFR in A431 cells (Homo sapiens, UniProt P00533); conditions: WT (A431) IC50 nM, cellular EGFR autophosphorylation, A431, 2 h treatment then EGF stimulation 10 min
# Mouse in vivo PK study [7] = conditions: male CD1 mice; remark: listed apart in the source
# [8] = mouse, plasma, 10 mg/kg PO, read-out: T1/2 (PO) (converted)
# Chain of Wild type EGFR in A431 cells (P00533 25-1210): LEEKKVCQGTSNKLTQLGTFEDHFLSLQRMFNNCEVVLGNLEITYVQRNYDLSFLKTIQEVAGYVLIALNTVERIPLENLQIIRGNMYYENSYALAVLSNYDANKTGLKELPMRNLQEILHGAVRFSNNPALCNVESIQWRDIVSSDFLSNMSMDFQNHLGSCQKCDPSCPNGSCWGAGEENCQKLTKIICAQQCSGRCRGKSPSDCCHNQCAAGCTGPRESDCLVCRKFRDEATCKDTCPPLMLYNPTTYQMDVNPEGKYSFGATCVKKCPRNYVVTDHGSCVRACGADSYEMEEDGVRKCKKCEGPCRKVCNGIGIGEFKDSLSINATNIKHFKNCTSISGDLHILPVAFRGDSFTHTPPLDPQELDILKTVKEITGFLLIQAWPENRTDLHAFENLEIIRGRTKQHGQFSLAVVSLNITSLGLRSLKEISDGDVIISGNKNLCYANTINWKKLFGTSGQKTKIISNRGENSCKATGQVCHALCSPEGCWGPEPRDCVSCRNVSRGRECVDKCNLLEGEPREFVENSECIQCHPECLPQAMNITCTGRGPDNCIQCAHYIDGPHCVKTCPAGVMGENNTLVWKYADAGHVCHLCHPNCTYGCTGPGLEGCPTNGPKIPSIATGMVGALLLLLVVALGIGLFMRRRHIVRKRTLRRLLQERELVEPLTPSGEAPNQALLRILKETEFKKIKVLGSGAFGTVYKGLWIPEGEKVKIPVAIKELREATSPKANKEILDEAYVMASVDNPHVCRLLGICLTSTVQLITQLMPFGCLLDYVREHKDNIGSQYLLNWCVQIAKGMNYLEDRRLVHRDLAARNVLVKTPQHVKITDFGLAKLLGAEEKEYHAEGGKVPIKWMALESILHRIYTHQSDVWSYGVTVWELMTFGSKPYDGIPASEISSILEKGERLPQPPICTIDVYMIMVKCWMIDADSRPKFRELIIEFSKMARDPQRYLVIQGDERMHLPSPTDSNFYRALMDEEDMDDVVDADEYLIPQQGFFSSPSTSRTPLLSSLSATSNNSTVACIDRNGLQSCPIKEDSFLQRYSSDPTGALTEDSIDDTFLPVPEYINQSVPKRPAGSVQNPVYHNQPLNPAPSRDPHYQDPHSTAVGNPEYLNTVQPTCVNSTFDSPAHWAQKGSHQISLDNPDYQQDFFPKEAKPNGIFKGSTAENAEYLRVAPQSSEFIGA
# T4 sequence (P00533 25-1210 T790M/L858R): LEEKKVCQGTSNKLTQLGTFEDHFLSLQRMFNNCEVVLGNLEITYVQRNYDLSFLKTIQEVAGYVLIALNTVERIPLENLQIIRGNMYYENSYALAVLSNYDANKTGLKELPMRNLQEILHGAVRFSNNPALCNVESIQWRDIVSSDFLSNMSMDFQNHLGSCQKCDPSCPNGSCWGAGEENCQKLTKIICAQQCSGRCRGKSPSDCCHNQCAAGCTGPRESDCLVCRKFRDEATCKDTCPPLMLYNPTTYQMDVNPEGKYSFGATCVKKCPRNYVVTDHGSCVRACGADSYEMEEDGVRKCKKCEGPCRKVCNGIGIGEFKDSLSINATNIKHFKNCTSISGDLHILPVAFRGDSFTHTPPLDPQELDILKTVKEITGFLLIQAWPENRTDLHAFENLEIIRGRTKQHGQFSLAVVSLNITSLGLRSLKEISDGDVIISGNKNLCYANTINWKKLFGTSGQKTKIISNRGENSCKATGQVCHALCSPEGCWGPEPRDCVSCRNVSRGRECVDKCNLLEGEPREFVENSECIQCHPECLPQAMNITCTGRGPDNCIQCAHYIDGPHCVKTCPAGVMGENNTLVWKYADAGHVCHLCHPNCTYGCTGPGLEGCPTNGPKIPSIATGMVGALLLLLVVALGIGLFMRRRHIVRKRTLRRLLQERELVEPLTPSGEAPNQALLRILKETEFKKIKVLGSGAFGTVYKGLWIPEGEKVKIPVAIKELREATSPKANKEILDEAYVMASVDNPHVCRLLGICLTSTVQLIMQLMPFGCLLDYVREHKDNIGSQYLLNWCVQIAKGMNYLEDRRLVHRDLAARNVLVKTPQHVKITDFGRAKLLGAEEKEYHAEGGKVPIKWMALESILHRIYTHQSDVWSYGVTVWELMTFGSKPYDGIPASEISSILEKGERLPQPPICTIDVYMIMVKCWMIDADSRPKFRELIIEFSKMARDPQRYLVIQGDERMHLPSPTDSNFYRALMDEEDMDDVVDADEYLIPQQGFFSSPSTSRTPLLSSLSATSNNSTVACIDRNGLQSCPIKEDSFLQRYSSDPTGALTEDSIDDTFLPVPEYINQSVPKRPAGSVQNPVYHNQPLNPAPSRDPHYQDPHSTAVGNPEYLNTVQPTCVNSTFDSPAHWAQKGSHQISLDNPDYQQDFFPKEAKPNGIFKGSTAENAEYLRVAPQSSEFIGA
# T2 sequence (P00533 with tags, fused parts or gaps DEL746-750): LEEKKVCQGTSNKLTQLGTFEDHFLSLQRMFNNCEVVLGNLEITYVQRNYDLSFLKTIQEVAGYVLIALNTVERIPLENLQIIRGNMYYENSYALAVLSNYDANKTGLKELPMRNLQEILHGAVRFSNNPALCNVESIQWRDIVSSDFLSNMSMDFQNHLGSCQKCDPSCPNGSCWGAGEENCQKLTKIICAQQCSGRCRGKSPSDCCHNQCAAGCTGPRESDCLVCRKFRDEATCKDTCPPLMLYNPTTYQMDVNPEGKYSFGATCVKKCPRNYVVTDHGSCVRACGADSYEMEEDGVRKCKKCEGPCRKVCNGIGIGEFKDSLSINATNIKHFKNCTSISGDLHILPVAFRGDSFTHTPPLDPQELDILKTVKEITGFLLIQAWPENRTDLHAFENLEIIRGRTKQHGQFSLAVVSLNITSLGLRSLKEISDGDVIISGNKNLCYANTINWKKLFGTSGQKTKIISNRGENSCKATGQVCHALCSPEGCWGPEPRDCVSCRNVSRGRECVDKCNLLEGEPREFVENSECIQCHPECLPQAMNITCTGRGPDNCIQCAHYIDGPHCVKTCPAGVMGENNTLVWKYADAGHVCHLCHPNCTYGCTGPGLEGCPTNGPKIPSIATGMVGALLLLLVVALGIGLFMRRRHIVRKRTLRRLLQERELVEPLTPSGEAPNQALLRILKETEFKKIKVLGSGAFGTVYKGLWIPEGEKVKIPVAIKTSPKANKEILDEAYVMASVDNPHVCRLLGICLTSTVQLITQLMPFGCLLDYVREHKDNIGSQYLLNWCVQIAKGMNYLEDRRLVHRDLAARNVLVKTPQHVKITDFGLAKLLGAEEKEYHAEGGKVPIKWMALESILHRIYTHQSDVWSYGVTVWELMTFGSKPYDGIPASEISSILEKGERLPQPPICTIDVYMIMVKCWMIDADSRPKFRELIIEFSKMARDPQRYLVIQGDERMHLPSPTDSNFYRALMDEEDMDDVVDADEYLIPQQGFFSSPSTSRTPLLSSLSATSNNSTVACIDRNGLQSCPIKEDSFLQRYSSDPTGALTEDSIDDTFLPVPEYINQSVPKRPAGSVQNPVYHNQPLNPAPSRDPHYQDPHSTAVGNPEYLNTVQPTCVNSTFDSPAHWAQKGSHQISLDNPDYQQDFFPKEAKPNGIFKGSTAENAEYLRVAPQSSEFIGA
# T1 sequence (P06213 1005-1382 limits assumed): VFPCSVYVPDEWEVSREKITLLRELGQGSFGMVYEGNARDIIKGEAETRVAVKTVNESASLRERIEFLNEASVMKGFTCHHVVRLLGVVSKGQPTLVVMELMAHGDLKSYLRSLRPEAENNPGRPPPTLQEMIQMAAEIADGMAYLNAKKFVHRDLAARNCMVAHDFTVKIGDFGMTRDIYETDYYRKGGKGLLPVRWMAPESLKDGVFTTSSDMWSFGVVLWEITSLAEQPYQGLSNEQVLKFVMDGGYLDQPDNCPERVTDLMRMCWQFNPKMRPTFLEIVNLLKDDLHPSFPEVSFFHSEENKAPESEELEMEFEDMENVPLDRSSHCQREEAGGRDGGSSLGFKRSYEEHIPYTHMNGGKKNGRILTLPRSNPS
# T3 sequence (P08069 959-1367 limits assumed): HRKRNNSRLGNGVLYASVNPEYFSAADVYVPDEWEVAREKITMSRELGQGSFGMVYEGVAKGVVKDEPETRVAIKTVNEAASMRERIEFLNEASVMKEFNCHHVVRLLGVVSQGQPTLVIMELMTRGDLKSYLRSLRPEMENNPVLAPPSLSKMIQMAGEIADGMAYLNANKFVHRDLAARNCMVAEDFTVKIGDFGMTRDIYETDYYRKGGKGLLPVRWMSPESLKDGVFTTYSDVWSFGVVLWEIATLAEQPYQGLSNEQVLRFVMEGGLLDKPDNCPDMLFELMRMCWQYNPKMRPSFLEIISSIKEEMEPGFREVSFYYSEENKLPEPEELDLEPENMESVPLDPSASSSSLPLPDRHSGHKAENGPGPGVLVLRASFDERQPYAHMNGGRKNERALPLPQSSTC
Compound,TGI (tumor growth inhibition) ([1]; 5 mg/kg) [%],TRTV/CRTV (relative tumor volume) ([1]; 5 mg/kg) [%],Tumor Size ([1]; 5 mg/kg) [mm^3],TGI (tumor growth inhibition) ([1]; 15 mg/kg) [%],TRTV/CRTV (relative tumor volume) ([1]; 15 mg/kg) [%],Tumor Size ([1]; 15 mg/kg) [mm^3],TGI (tumor growth inhibition) ([1]; 30 mg/kg) [%],TRTV/CRTV (relative tumor volume) ([1]; 30 mg/kg) [%],Tumor Size ([1]; 30 mg/kg) [mm^3],IC50 (INSR) [nM],IC50 [2],IC50 (IGF-1R) [nM],IC50 [3] [µM],"IC50 (PC-9 cells; Homo sapiens, PC-9, 72 h) [nM]","AUC (Mouse in vivo PK study [4]; mouse, plasma, 10 mg/kg PO) [ng·h/mL]","Cmax (Mouse in vivo PK study [4]; mouse, plasma, 10 mg/kg PO) [ng/mL]",half-life (Mouse in vivo PK study [4]; [8]) [h],IC50 [5],"IC50 (A431 cells; Homo sapiens, A-431, 72 h) [nM]","IC50 (H1975 cells; Homo sapiens, NCI-H1975, 72 h) [nM]",further results
"C=CC(=O)Nc1cc(Nc2nccc(-n3nc(N(C)C)c4cc(Cl)sc43)n2)c(OC)cc1N(C)CCN(C)C [Example 6, N-(5-((4-(5-Chloro-3-(dimethylamino)-1H-thieno[2,3-c]pyrazol-1-yl)pyrimidin-2-yl)amino)-2-((2-(dimethylamino)ethyl)(methyl)amino)-4-methoxyphenyl)acrylamide]",99.56,17.49,203 ± 24,114.04,5.34,63 ± 30,117.41,2.42,28 ± 9,2310,0.00835 µM,2090,2.55,1.82,784,117,2.67,0.00752 µM,1090,2.6,"IC50 [6]: 72.5 nM; F (Mouse in vivo PK study [7]; 1 mg/kg IV, 10 mg/kg PO): 46.7%; AUC (Mouse in vivo PK study [7]; mouse, plasma, 1 mg/kg IV): 168 ng·h/mL; clearance (Mouse in vivo PK study [7]; mouse, plasma, 1 mg/kg IV): 100 mL/min/kg; half-life (Mouse in vivo PK study [7]; mouse, plasma, 1 mg/kg IV, read-out: T1/2 (IV) (converted)): 0.92 h"
"C=CC(=O)Nc1cc(Nc2nccc(-c3cc(C#N)c4c(c3)c(C)cn4C)n2)c(OC)cc1N(C)CCN(C)C [Example 2, N-(5-((4-(7-Cyano-1,3-dimethyl-1H-indol-5-yl)pyrimidin-2-yl)amino)-2-((2-(dimethylamino)ethyl)(methyl)amino)-4-methoxyphenyl)acrylamide]",96.93,19.70,230 ± 93,115.76,3.93,46 ± 32,115.52,3.92,45 ± 19,1820,0.00706 µM and 0.0054 µM,1120,6.57,4.18,976,119,2.57,0.00429 µM and 0.00254 µM,2120,4.77,"IC50 (PC-9 cells): 3.22 nM; F (Mouse in vivo PK study [4]; 2 mg/kg IV, 10 mg/kg PO): 20.8%; clearance (Mouse in vivo PK study [4]; mouse, plasma, 2 mg/kg IV): 35.5 mL/min/kg; half-life (Mouse in vivo PK study [4]; mouse, plasma, 2 mg/kg IV, read-out: T1/2 (IV) (converted)): 1.5 h; IC50 (A431 cells): 3680 nM; IC50 (H1975 cells; NCI-H1975 cells): 3.45 nM; IC50 [6]: 77.1 nM and 166 nM; AUC (Mouse in vivo PK study [7]; mouse, plasma, 2 mg/kg IV): 937 ng·h/mL"
